Drawing on US5807837A, “Composition and method for the treatment or prophylaxis of viral infections using modified oligodeoxyribonucleotides” (Sankyo Company, Limited, priority 1993, dated 1998), this text covers CC50 for 30 substances.

By CC50 is commonly meant the concentration that lowers cell viability or growth by half. Higher therefore signals lower toxicity to the cells.

Some results are limits rather than exact numbers.

The data set has as its system non-HIV-1 infected MT-4 cells. The data set can be described thus: Cytotoxicity: inhibition of multiplication of non-HIV-1 infected MT-4 cells (MTT method). It is filed as cell-based. Conditions: 6 days culture, 50% inhibition of multiplication. As for the experimental part: HIV-1 infected MT-4 cells and non-HIV-1 infected MT-4 cells were suspended in serum culture media so that a concentration of […] cells/ml of each was attained. One hundred μl of a solution of stepwise diluted sample compound (dissolved in serum culture media), prepared in advance, was placed in each well of […] microtiter plates. Then, 100 μl of each of the above-mentioned cell suspensions was added to each well of microtiter plates, and their cells were cultured for 6 days in the presence of 5% carbon dioxide gas.
As a control, HIV-1 infected MT-4 cells and non-HIV-1 infected MT-4 cells in which no sample compound was added were cultured in the same manner.
After the cultivation, live cell number was measured based on the MTT(3-(4,5-dimethylthiazole-2-yl)-2,5-diphenyltetrazolium bromide) method (L. M. Green et al., J. Immunol, Methods, 70, 257-268(1984)). Then the cytopathic activity of HIV-1 was measured. With the cytopathic activity of HIV-1 infected MT-4 cells to which no sample compound was added as 100%, and the cytopathic activity of […] MT-4 cells to which no sample compound was added as 0%, the concentration of the specimen which inhibited the cytopathic activity of HIV-1 infected MT-4 cells by 50(IC50) was calculated. The cytotoxicity of the sample compound was determined as that concentration which inhibited the multiplication of non-HIV-1 infected MT-4 cells by 50% (CC50).
On the technique in general: Tetrazolium dyes change colour on reduction, which living cells bring about.
The substance DMT--O--AATGGGAGG--OH [Example 81] showed a CC50 of more than 100.0 mg/L. With DMT--O--CCG--OH [Example 74] the figure was more than 100.0 mg/L; with DMT--O--CGCGG--OH [Example 48], more than 100.0 mg/L.

In turn, DMT--O--CGGGAGG--OH [Example 29] gave a CC50 of more than 100.0 mg/L. DMT--O--CGGGG--OH [Example 45] had a CC50 of more than 100.0 mg/L. As to DMT--O--CGGGT--OH [Example 43], the CC50 is 100.0 mg/L. As for DMT--O--CTGGGAGG--OH [Example 37], the figure is more than 100.0 mg/L. With DMT--O--GGGCGGGGC--OH [Example 70] the figure was 60.0 mg/L; with DMT--O--GGGGAGG--OH [Example 33], more than 100.0 mg/L.

Substance DMT--O--GTGGGAGG--OH [Example 77] returned a CC50 of more than 100.0 mg/L.

DMT--O--TAGGAGG--OH [Example 71] yielded a CC50 of 37.0 mg/L. With DMT--O--TCGGAGG--OH [Example 75] the figure was 40.0 mg/L; with DMT--O--TGCGAGG--OH [Example 32], more than 100.0 mg/L. With DMT--O--TGG--OH [Example 78], the CC50 is more than 50.0 mg/L.

For DMT--O--TGGG--OH [Example 26], the CC50 came to 80.0 mg/L. As for DMT--O--TGGGA--OH [Example 27], the figure is 95.0 mg/L; as for DMT--O--TGGGAGA--OH [Example 80], more than 100.0 mg/L. With DMT--O--TGGGAGG--OH [Example 30] the figure was more than 100.0 mg/L.

Substance DMT--O--TGGGAGGT--OH [Example 72] returned a CC50 of more than 100.0 mg/L. As for DMT--O--TGGGAmGG [Example 79], the figure is more than 100.0 mg/L. Regarding DMT--O--TGGGC--OH [Example 58], the CC50 worked out at 50.0 mg/L. Consider DMT--O--TGGGCGCAG--OH [Example 73], for which the CC50 is more than 100.0 mg/L. With DMT--O--TGGGG--OH [Example 28] the figure was more than 100.0 mg/L; with DMT--O--TGGGT--OH [Example 57], 100.0 mg/L; with DMT--O--TGmCGAGG--OH [Example 76], more than 100.0 mg/L.

Turning to DMT--O--TTGGAGG--OH [Example 31], the CC50 was determined as 90.0 mg/L. With DMT--O--TTGGGAGG--OH [Example 36] the figure was 100.0 mg/L. With DMT--O--mCGGGAGG--OH [Example 34] the figure was more than 100.0 mg/L. With DMT--O--mCGmCGAGG--OH [Example 35] the figure was more than 100.0 mg/L; with DMT-O-TGGGAG-OH [Example 25], more than 100.0 mg/L.
